From patent US20230145835A1, “Modulators of Alpha-4-beta-7 Integrin and MAdCAM” (48HD Biopharma Inc., priority 2021, published 2023)
Numbered stars: 1 amine (or outer) side, 2 acyl side, 3 side chain; on linkers, the order of the positions; unused ones are H or OH. Bridge positions count the residues as written; N and C are the ends. Peptide text beside a SMILES is read from it. X3 = O=C(/C=N/OCCCCCCOc1cc(C[*:2])cc(C[*:3])c1)[*:1]; X2 = O=C(C=NOCc1cc(C[*:2])cc(C[*:3])c1)[*:1]

Assays:
rh-integrin α4β7/LPAM-1 [1] = target: T1, rh-integrin α4β7/LPAM-1 (Homo sapiens, UniProt P13612+P26010); assay: α4β7-MadCAM Competition ELISA (Example 4); format: binding; settings: IC50, competition ELISA, 4 μg/mL α4β7 coated, MAdCAM and peptide mixture, 28° C.
T1 sequence (P13612 34-977 limits assumed): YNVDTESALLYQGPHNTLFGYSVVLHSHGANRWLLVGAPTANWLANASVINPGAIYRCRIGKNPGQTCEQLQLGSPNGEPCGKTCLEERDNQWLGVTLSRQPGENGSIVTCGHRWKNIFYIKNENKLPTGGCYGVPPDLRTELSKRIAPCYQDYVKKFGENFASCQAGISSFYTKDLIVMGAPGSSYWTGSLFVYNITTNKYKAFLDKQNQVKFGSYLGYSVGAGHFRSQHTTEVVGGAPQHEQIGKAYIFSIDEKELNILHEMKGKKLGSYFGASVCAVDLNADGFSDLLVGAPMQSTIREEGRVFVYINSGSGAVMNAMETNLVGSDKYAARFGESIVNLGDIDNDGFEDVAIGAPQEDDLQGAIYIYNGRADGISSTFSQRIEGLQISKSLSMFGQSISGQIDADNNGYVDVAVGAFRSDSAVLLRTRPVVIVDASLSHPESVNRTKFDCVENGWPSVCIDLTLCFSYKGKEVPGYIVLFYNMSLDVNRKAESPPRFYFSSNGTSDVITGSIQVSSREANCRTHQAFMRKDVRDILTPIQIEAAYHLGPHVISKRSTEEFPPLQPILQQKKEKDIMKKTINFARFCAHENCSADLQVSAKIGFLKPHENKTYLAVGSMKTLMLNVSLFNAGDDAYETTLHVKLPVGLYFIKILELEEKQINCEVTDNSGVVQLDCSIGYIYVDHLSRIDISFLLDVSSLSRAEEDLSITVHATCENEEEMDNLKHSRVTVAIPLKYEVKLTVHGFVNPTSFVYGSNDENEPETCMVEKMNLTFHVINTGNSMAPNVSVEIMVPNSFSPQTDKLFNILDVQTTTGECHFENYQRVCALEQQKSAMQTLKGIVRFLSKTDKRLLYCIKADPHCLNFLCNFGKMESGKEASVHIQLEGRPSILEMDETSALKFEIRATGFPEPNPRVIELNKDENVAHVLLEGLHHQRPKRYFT
T1 sequence (P26010 20-723 limits assumed): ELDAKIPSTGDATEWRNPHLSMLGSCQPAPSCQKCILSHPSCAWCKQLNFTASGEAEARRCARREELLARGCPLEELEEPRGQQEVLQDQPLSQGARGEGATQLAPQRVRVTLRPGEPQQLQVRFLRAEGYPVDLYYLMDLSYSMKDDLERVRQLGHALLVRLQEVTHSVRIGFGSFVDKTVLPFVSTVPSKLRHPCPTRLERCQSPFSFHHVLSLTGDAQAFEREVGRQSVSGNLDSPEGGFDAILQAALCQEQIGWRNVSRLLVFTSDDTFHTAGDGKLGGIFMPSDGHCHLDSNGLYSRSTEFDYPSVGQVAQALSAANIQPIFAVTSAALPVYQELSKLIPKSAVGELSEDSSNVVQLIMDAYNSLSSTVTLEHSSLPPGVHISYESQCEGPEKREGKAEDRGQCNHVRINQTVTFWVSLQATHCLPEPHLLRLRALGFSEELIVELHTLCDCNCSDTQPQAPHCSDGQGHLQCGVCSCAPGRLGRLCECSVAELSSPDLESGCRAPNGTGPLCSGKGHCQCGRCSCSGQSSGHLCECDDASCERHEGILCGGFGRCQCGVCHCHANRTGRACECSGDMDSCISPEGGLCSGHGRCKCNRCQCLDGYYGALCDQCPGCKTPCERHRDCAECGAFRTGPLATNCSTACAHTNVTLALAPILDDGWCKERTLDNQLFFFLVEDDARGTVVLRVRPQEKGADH
Method: After washing with wash buffer, 200 μL assay buffer was added to each well and incubated for one hour at 28° C. After another wash with wash buffer, 100 μL of a MAdCAM and peptide mixture in assay buffer was added to each well and incubated for one hour at 28° C., followed by washing with wash buffer.

rh-integrin α4β7/LPAM-1 [2] = target: T1, rh-integrin α4β7/LPAM-1; assay: Competition Binding Assay (competition ELISA, Example 1)

| SMILES | IC50 (rh-integrin α4β7/LPAM-1 [1]) [µM] | IC50 (rh-integrin α4β7/LPAM-1 [2]) [µM] |
| --- | --- | --- |
| CC(C)C[C@@H]1NC(=O)[C@H]([C@@H](C)O)NC(=O)[C@H](CC(=O)O)NC(=O)[C@H](CO)NC(=O)[C@H](CCCNC(=N)N)NC(=O)[C@@H]2CSCc3cc(cc(c3)CSC[C@@H](C(=O)O)NC1=O)CON=CC(=O)N[C@@H](C)C(=O)N2 [SEQ ID NO: 70] (ACRSDTLC-OH; linker N-2-8 via X2) | 111 | 111 |
| CC(C)C[C@@H]1NC(=O)[C@H]([C@@H](C)O)NC(=O)[C@H](CC(=O)O)NC(=O)[C@H](CO)NC(=O)[C@H](CCCNC(=N)N)NC(=O)[C@@H]2CSCc3cc(cc(c3)OCCCCCCO/N=C/C(=O)N[C@@H](C)C(=O)N2)CSC[C@@H](C(N)=O)NC1=O [SEQ ID NO: 25] (ACRSDTLC-NH2; linker N-2-8 via X3; C-terminus assumed) | – | 79.8 |
| CC[C@H](C)[C@@H]1NC(=O)[C@H](CC(=O)O)NC(=O)[C@H](CCSC)NC(=O)[C@@H]2CCCN2C(=O)[C@@H]2CSCc3cc(cc(c3)OCCCCCCO/N=C/C(=O)N[C@@H](CCC(N)=O)C(=O)N2)CSC[C@@H](C(N)=O)NC(=O)[C@H]([C@@H](C)O)NC(=O)[C@@H]2CCCN2C1=O [SEQ ID NO: 23] (QCPMDIPTC-NH2; linker N-2-9 via X3; C-terminus assumed) | – | 1.32 |
